Reference: PubChem BioAssay (NCI)
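Tested at 5 concentrations; 48 h exposure; 96-well plates; endpoints linearly interpolated, else capped at highest concentration. GI50 marks 50% less growth. TGI marks complete inhibition of growth.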

Columns and labels:
Experiment in all cases: NCI tumour cell line growth inhibition, 48 h
[1] = tested on: M14 melanoma
[2] = tested on: HOP-92 NSCLC
[3] = tested on: RPMI-8226 leukemia
[4] = tested on: SNB-75 CNS
[5] = tested on: UACC-62 melanoma
[6] = tested on: NCI-H23 lung
[7] = tested on: UO-31 renal
[8] = tested on: MDA-MB-231 breast
[9] = tested on: HCC-2998 colon
[10] = tested on: NCI/ADR-RES ovarian

Row | Structure (SMILES) | GI50 [1] [µM] | TGI [1] [µM] | GI50 [2] [µM] | TGI [2] [µM] | GI50 [3] [µM] | TGI [3] [µM] | GI50 [4] [µM] | TGI [4] [µM] | GI50 [5] [µM] | TGI [5] [µM] | GI50 [6] [µM] | TGI [6] [µM] | GI50 [7] [µM] | TGI [7] [µM] | GI50 [8] [µM] | TGI [8] [µM] | GI50 [9] [µM] | TGI [9] [µM] | TGI [10] [µM] | GI50 [10] [µM]
1 | COc1cccc2c1C(=O)c1c(O)c3c(c(O)c1C2=O)C[C@@](O)(C(=O)CO)C[C@@H]3OC1C[C@H](N)[C@H](O)[C@H](C)O1 (stereo partly drawn) | 0.0846 | 0.404 | 0.0236 | 0.233 | 0.0909 | 1.28 | 0.034 | 0.147 | 0.0346 | 0.117 | 0.0484 | 0.234 | 0.152 | 1.14 | 0.144 | 5.41 | 0.0678 | 0.34 | – | –
2 | O=C1CN(C(=O)c2ccccc2)Cc2[nH]c3ccccc3c21 | – | > 100 | – | > 100 | – | > 100 | – | > 100 | – | > 100 | – | > 100 | – | > 100 | – | – | – | > 100 | – | –
3 | COc1cccc(/C=C/c2cnc3ccccc3n2)c1OC | – | > 100 | – | 88.2 | – | > 100 | – | 79.6 | – | 91.2 | – | > 100 | – | > 100 | – | > 100 | – | – | 60.1 | –
4 | CCSC1=C(C)N(C=NC(C)(C)C)CC1 | – | > 100 | – | > 100 | – | – | – | > 100 | – | > 100 | – | > 100 | – | > 100 | – | – | – | > 100 | – | –
5 | O=C1C(=O)N(c2ccc(Cl)cc2Cl)C(=O)C(=O)C1c1nc2ccccc2o1 | – | > 100 | – | > 100 | – | > 100 | – | > 100 | – | > 100 | – | > 100 | – | > 100 | – | – | – | > 100 | – | –
6 | CN(C)C(=O)c1cc2cnc(Nc3ccc(-c4csc5c(=O)cc(N6CCOCC6)oc45)cc3)nc2n1C1CCCC1 | 0.184 | 0.601 | 0.0541 | 41.9 | 0.142 | 0.533 | 0.085 | 0.373 | 0.129 | 0.367 | 0.182 | 0.87 | 0.0537 | 0.287 | – | – | 0.219 | 1.2 | > 65.6 | 0.375
7 | COc1ccc2nc3cc(Cl)ccc3c(NCCCNCCC(C)O)c2c1 (stereo not drawn) | 0.59 | 2.02 | 0.535 | 2.76 | 0.575 | 3.09 | 0.568 | 1.93 | – | – | 0.36 | 2.1 | 1.11 | 3.27 | 0.203 | 1.37 | – | – | 15.5 | 2.46
8 | O=C1c2c(n(Cc3ccccc3)c(=O)n2Cc2ccccc2)C(=O)N1Cc1ccccc1 | – | > 100 | – | > 100 | – | > 100 | – | > 100 | – | > 100 | – | > 100 | – | > 100 | – | – | – | > 100 | – | –
9 | CN1CC(C(=O)C2C(=O)c3ccccc3C2=O)C(=O)C(=O)C(C(=O)C2C(=O)c3ccccc3C2=O)C1 (stereo not drawn) | – | > 10 | – | > 100 | – | – | – | > 100 | – | > 100 | – | > 100 | – | > 100 | – | – | – | > 100 | – | –
10 | CC#CC1/C(=C\C(=O)OC)CCCC1O (stereo not drawn) | – | > 100 | – | – | – | – | – | > 100 | – | > 100 | – | > 100 | – | > 100 | – | – | – | > 100 | – | –
11 | CCN(CCCl)CCCNc1c2ccccc2nc2ccc(OC)cc12 | 213 | – | 180 | – | – | – | 532 | – | 255 | – | 382 | – | – | 2060 | – | – | 436 | – | – | –
12 | O=C(CC(=O)N1N=C(N2c3ccccc3Sc3ccccc32)CC1c1ccccc1)Nc1ccc(Cl)cc1 (stereo not drawn) | – | > 100 | – | > 100 | – | – | – | > 100 | – | > 100 | – | > 100 | – | > 100 | – | – | – | > 100 | – | –
13 | CCOC(=O)C1SC(=Nc2ccc(Cl)c(Cl)c2)N=C1C (stereo not drawn) | – | > 100 | – | – | – | 56.9 | – | 58.9 | – | > 100 | – | > 100 | – | > 100 | – | – | – | > 100 | – | –
14 | CO[C@@H]1/C=C(C)/C=C/[C@@H](C)/C=C(\C)C(=O)OC(/C(C)=C/C=C(\C)CNC(=O)[C@H](CO)NC=O)[C@@H](C)/C=C/C=C/[C@H](OC)CC/C=C(C)/C=C/C1 (stereo partly drawn) | < 0.005 | < 0.005 | < 0.005 | 0.0852 | < 0.005 | 11.8 | 0.242 | > 25.8 | < 0.005 | < 0.005 | < 0.005 | 0.266 | < 0.005 | 0.425 | 0.292 | – | – | – | 15.4 | 0.0587
15 | CC1=CCC23C(C1)OC(Br)(C=CC2(C)O)C3(C)C (stereo not drawn) | – | – | – | > 100 | – | – | – | > 100 | – | > 100 | – | > 100 | – | – | – | – | – | > 100 | – | –
